From patent publication US20200115357A1, “LIVER X RECEPTORS (LXR) MODULATORS” (Phenex-FXR GmbH, priority 2017, published 2020)
pEC50: −log10 of the molar value.

How the values were obtained:
[1] = target: T1, LXRα ligand-binding domain (LBD) (Homo sapiens, UniProt Q13133); assay: LXR Gal4 reporter transient transfection assay (M2H), Gal4α LBD; type: cell-based; settings: HEK293 cells; for pEC50: read-out: M2H Gal4α LBD activity range (EC50)
T1 construct: expressed in transfected cells; host or cells: HEK293
T1 sequence (Q13133 155-447): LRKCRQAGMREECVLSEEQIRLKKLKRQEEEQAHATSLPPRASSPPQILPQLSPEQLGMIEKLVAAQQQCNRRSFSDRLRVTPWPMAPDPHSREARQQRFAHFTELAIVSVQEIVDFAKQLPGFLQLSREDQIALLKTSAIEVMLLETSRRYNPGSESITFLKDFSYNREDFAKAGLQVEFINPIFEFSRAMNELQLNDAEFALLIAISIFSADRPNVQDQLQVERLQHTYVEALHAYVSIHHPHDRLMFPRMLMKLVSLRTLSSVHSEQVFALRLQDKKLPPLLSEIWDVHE
Method: (§1) The tested compounds were usually dissolved, tested and stored as 20 mM stock solutions in DMSO. Since sulfonyl acetic acid derivatives tend to decarboxylate under these conditions, these stock solutions were prepared, tested and stored as 20 mM DMSO stock solutions containing 100 mM trifluoroacetic acid (5 equivalents). Sulfonyl acetic acid derivatives are shelf stable as solid at rt for long time as reported by Griesbrecht et al. (Synlett 2010:374) or Faucher et al. (J. Med. Chem. 2004; 47:18).
(§2) LXR Gal4 Reporter Transient Transfection Assays
(§3) LXRα and LXRβ activity status was determined via detection of interaction with coactivator and corepressor proteins in mammalian two-hybrid experiments (M2H). For this, via transient transfection the full length (FL) proteins of LXRα (amino acids 1-447; NP005684; SEQ ID NO:7) or LXRβ-(amino acids 1-461; NP009052; SEQ ID NO:8) or the ligand-binding domains (LBD) of LXRα (amino acids 155-447 SEQ ID NO:3) or LXRβ (amino acids 156-461; SEQ ID NO:4) were expressed from pCMV-AD (Stratagene) as fusions to the transcriptional activation domain of NFkB. As cofactors, domains of either the steroid receptor coactivator 1 (SRC1; amino acids 552-887; SEQ ID NO:5) or of the corepressor NCoR (amino acids 1903-2312 SEQ ID NO:6) were expressed as fusions to the DNA binding domain of the yeast transcription factor GAL4 (from pCMV-BD; Stratagene). Interaction was monitored via activation of a coexpressed Firefly Luciferase Reporter gene under control of a promoter containing repetitive GAL4 response elements (vector pFRLuc; Stratagene). Transfection efficiency was controlled via cotransfection of constitutively active pRL-CMV Renilla reniformis luciferase reporter (Promega). HEK293 cells were grown in minimum essential medium (MEM) with 2 mM L-glutamine and Earle's balanced salt solution supplemented with 8.3% fetal bovine serum, 0.1 mM non-essential amino acids, 1 mM sodium pyruvate, at 37° C. in 5% CO2. 3.5×10^4 cells/well were plated in 96-well cell culture plates in growth medium supplemented with 8.3% fetal bovine serum for 16-20 h to ˜90% confluency. For transfection, medium was taken off and LXR and cofactor expressing plasmids as well as the reporter plasmids are added in 30 μL OPTIMEM/well including polyethylene-imine (PEI) as vehicle. Typical amounts of plasmids transfected/well: pCMV-AD-LXR (5 ng), pCMV-BD-cofactor (5 ng), pFR-Luc (100 ng), pRL-CMV (0.5 ng). Compound stocks were prepared in DMSO, prediluted in MEM to a total volume of 120 μL, and added 4 h after addition of the transfection mixture (final vehicle concentration not exceeding 0.2%). Cells were incubated for additional 16 h, lysed for 10 min in 1× Passive Lysis Buffer (Promega) and Firefly and Renilla luciferase activities were measured sequentially in the same cell extract using buffers containing D-luciferine and coelenterazine, respectively. Measurements of luminescence were done in a BMG-Iuminometer.

[2] = target: T2, GST-LXRβ ligand-binding domain (Homo sapiens, UniProt P55055, DUP175-175); assay: TR-FRETβ activity assay (LXRβ-LBD / NCoA3 coactivator peptide, prestimulated with 24(S)-25-epoxycholesterol); type: biochemical; design: key to behavior in FRET assay: ag=agonist; ia=inverse agonist; settings: for pEC50: 1 μM 24(S)-25-epoxycholesterol as prestimulating agonist, read-out: FRETβ activity range (EC50); for behavior in FRET assay: agonist or inverse agonist
T2 construct: amino acids 156-461; NP009052; made in house; host or cells: E. coli
T2 sequence (P55055 with tags, fused parts or gaps DUP175-175): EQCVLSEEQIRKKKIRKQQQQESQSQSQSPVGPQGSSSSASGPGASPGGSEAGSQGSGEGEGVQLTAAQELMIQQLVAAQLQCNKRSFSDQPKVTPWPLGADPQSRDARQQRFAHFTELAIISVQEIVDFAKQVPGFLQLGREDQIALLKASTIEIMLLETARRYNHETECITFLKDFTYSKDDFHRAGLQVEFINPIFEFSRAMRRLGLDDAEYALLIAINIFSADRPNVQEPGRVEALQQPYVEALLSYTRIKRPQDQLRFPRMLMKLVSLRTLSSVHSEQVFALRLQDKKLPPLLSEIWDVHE
In short: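 E. coli-expressed GST-LXRβ LBD (aa 156-461) at 76 nM with biotinylated NCoA3 coactivator peptide (400 nM), in 240 mM KCl, BSA and Triton-X-100. Anti-GST-Tb cryptate/streptavidin-XL665 TR-FRET after 1 h equilibration at 4 °C, excitation 340 nm, emission 615 and 665 nm. Run in triplicate.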

[3] = target: T3, LXRβ ligand-binding domain (LBD) (Homo sapiens, UniProt P55055, DUP175-175); assay: LXR Gal4 reporter transient transfection assay (M2H), Gal4β LBD; type: cell-based; settings: HEK293 cells; for pEC50: read-out: M2H Gal4β LBD activity range (EC50)
T3 construct: LXRβ (amino acids 156-461); expressed in transfected cells; host or cells: HEK293
T3 sequence (P55055 with tags, fused parts or gaps DUP175-175): T2 sequence (P55055 with tags, fused parts or gaps DUP175-175)
Method: as §1, §2, §3

Row | Structure (SMILES) | pEC50 [1] | pEC50 [2] | behavior in FRET assay [2] | pEC50 [3] | M2H Gal4α LBD activity range (EC50) [1] | M2H Gal4β LBD activity range (EC50) [3]
1 | Cc1cc(C)c(S(=O)(=O)N(Cc2ccc(-c3cccc(CC(=O)O)c3)cc2)Cc2cccc(Br)c2)c(C)c1 [2/3] | 6.00 to 7.00 | 5.00 to 6.00 | ia | 6.00 to 7.00 | – | –
2 | Cc1cc(C)c(S(=O)(=O)N(Cc2ccc(-c3cccc(CC(=O)O)c3)cc2)Cc2cccc(C(F)(F)F)c2)c(C)c1 [2/4] | 6.00 to 7.00 | 6.00 to 7.00 | ia | > 7.00 | – | –
3 | Cc1cc(C)c(S(=O)(=O)N(Cc2ccc(-c3cccc(OCC(=O)O)c3)cc2)Cc2ccc(C(F)(F)F)o2)c(C)c1 [5/3] | 6.00 to 7.00 | 5.00 to 6.00 | ia | 6.00 to 7.00 | – | –
4 | Cc1cc(C)c(S(=O)(=O)N(Cc2ccc(-c3cccc(C(F)(F)C(=O)O)c3)cc2)Cc2ccc(C(F)(F)F)o2)c(C)c1 [5/4] | 6.00 to 7.00 | 6.00 to 7.00 | ia | 6.00 to 7.00 | – | –
5 | Cc1cc(C)c(S(=O)(=O)N(Cc2ccc(-c3cccc(S(=O)(=O)CCCC(=O)O)c3)cc2)Cc2ccc(C(F)(F)F)o2)c(C)c1 [7/2] | 6.00 to 7.00 | 5.00 to 6.00 | ia | 6.00 to 7.00 | – | –
6 | Cc1cc(C)c(S(=O)(=O)N(Cc2ccc(-c3cccc(C(C)C(=O)O)c3)cc2)Cc2ccc(C(F)(F)F)o2)c(C)c1 (centres unmarked) [7/4] | > 7.00 | 6.00 to 7.00 | ia | > 7.00 | – | –
7 | Cc1cc(C)c(S(=O)(=O)N(Cc2ccc(-c3cccc(C4(C(=O)O)CC4)c3)cc2)Cc2ccc(C(F)(F)F)o2)c(C)c1 [7/6] | 6.00 to 7.00 | 6.00 to 7.00 | ia | > 7.00 | – | –
8 | Cc1cc(C)c(S(=O)(=O)N(Cc2ccc(-c3cc(F)cc(C4(C(=O)O)CC4)c3)cc2)Cc2ccc(C(F)(F)F)o2)c(C)c1 [7/7] | 6.00 to 7.00 | 6.00 to 7.00 | ia | > 7.00 | – | –
9 | Cc1cc(C)c(S(=O)(=O)N(Cc2ccc(-c3cccc(C4(C(=O)O)CCOCC4)c3)cc2)Cc2ccc(C(F)(F)F)o2)c(C)c1 [7/8] | 6.00 to 7.00 | < 5.00 | ia | 6.00 to 7.00 | – | –
10 | COc1ccc(-c2ccc(CN(Cc3ccc(C(F)(F)F)o3)S(=O)(=O)c3c(C)cc(C)cc3C)cc2)cc1C(C)(C)C(=O)O [7/9] | 6.00 to 7.00 | 5.00 to 6.00 | ia | > 7.00 | – | –
11 | COc1ccc(C(C)(C)C(=O)O)cc1-c1ccc(CN(Cc2ccc(C(F)(F)F)o2)S(=O)(=O)c2c(C)cc(C)cc2C)cc1 [7/10] | 5.00 to 6.00 | 5.00 to 6.00 | ia | 6.00 to 7.00 | – | –
12 | Cc1cc(C)c(S(=O)(=O)N(Cc2ccc(-c3cccc([S+]([O-])CC(=O)O)c3)cc2)Cc2ccc(C(F)(F)F)o2)c(C)c1 (centres unmarked) [11/17] | 5.00 to 6.00 | 5.00 to 6.00 | ia | 5.00 to 6.00 | – | –
13 | Cc1cc(C)c(S(=O)(=O)N(Cc2ccc(-c3cncc(C(C)(C)C(=O)O)c3)cc2)Cc2ccc(C(F)(F)F)o2)c(C)c1 [11/18] | 6.00 to 7.00 | 6.00 to 7.00 | ia | > 7.00 | – | –
14 | Cc1cc(C)c(S(=O)(=O)N(Cc2ccc(N3CCCC(C(C)(C)C(=O)O)C3)cc2)Cc2ccc(C(F)(F)F)o2)c(C)c1 (centres unmarked) [16/2] | 6.00 to 7.00 | < 5.00 | ia | 6.00 to 7.00 | – | –
15 | Cc1cc(C)c(S(=O)(=O)N(Cc2ccc(C3=CS(=O)(=O)C(CC(=O)O)=C3)cc2)Cc2ccc(C(F)(F)F)o2)c(C)c1 [25/3] | 6.00 to 7.00 | 5.00 to 6.00 | ia | 6.00 to 7.00 | – | –
16 | Cc1cc(C)c(S(=O)(=O)N(Cc2ccc(-c3ccc(OCC(=O)O)cc3)cc2)Cc2ccc(C(F)(F)F)o2)c(C)c1 [C7/11] | 6.00 to 7.00 | 5.00 to 6.00 | ia | 6.00 to 7.00 | – | –
17 | CCOC(=O)Cc1cccc(-c2ccc(CN(Cc3ccc(C(F)(F)F)o3)S(=O)(=O)c3c(C)cc(C)cc3C)cc2)c1 [Example 1] | 6.00 to 7.00 | < 5.00 | ia | > 7.00 | – | –
18 | Cc1cc(C)c(S(=O)(=O)N(Cc2ccc(C(F)(F)F)o2)C(C)c2ccc(-c3cccc(CC(=O)O)c3)cc2)c(C)c1 (centres unmarked) [Example 2/1] | – | 5.00 to 6.00 | ia | – | inactive | inactive
19 | Cc1cc(C)c(S(=O)(=O)N(Cc2ccc(-c3cccc(S(=O)(=O)O)c3)cc2)Cc2ccc(C(F)(F)F)o2)c(C)c1 [Example 3, 4′-(((2,4,6-Trimethyl-N-((5-(trifluoromethyl)furan-2-yl)methyl)phenyl)sulfon-amido)methyl)-[1,1′-biphenyl]-3-sulfonic acid] | – | 5.00 to 6.00 | ia | – | inactive | inactive
20 | CC(=O)NS(=O)(=O)c1cccc(-c2ccc(CN(Cc3ccc(C(F)(F)F)o3)S(=O)(=O)c3c(C)cc(C)cc3C)cc2)c1 [Example 3/1] | 6.00 to 7.00 | < 5.00 | ia | > 7.00 | – | –
21 | COC(=O)CS(=O)(=O)c1cccc(-c2ccc(CN(Cc3ccc(C(F)(F)F)o3)S(=O)(=O)c3c(C)cc(C)cc3C)cc2)c1 [Example 4, Methyl 2-((4′-(((2,4,6-trimethyl-N-((5-(trifluoromethyl)furan-2-yl)methyl)phenyl)sulfon-amido)methyl)-[1,1′-biphenyl]-3-yl)sulfonyl)acetate] | 5.00 to 6.00 | > 7.00 | ia | 6.00 to 7.00 | – | –
22 | Cc1cc(C)c(S(=O)(=O)N(Cc2ccc(N3CCCN(CC(=O)O)C3=O)cc2)Cc2ccc(C(F)(F)F)o2)c(C)c1 [Example 16, 2-(2-Oxo-3-(4-(((2,4,6-trimethyl-N-((5-(trifluoromethyl)furan-2-yl)methyl)phenyl)sulfon-amido)methyl)phenyl)tetrahydropyrimidin-1(2H)-yl)acetic acid] | – | < 5.00 | ia | 5.00 to 6.00 | inactive | –
23 | Cc1cc(C)c(S(=O)(=O)N(Cc2ccc(N3CCCC(CC(=O)O)C3=O)cc2)Cc2ccc(C(F)(F)F)o2)c(C)c1 (centres unmarked) [Example 16/1] | 5.00 to 6.00 | < 5.00 | ia | 6.00 to 7.00 | – | –
